# The NIST ThermoML archive (doi:10.1021/acs.jced.6b00158)
# ± gives the expanded uncertainty stated by the source.
# Experiment: xn = mol fraction of the nth substance listed
# Conditions: 100 kPa, Liquid; for viscosity: Falling or rolling sphere viscometry; for mass density: Vibrating tube method
smiles,measurement,setting,value
NC1CCCCC1 [cyclohexylamine] + CC(C)CO,viscosity,"293.15 K, x2 = 0",2.134 ± 0.063 mPa·s
same,viscosity,"293.15 K, x2 = 0.06096",2.408 ± 0.064 mPa·s
same,viscosity,"293.15 K, x2 = 0.1205",2.575 ± 0.064 mPa·s
same,viscosity,"293.15 K, x2 = 0.2357",2.838 ± 0.065 mPa·s
same,viscosity,"293.15 K, x2 = 0.3458",3.048 ± 0.066 mPa·s
same,viscosity,"293.15 K, x2 = 0.4513",3.246 ± 0.066 mPa·s
same,viscosity,"293.15 K, x2 = 0.5523",3.403 ± 0.067 mPa·s
same,viscosity,"293.15 K, x2 = 0.6492",3.522 ± 0.067 mPa·s
same,viscosity,"293.15 K, x2 = 0.7421",3.534 ± 0.067 mPa·s
same,viscosity,"293.15 K, x2 = 0.8315",3.606 ± 0.068 mPa·s
same,viscosity,"293.15 K, x2 = 0.9174",3.668 ± 0.068 mPa·s
same,mass density,"293.15 K, x2 = 0",866.85 ± 2 kg/m3
same,mass density,"293.15 K, x2 = 0.06096",865.7 ± 2 kg/m3
same,mass density,"293.15 K, x2 = 0.1205",865.02 ± 2 kg/m3
same,mass density,"293.15 K, x2 = 0.2357",861.79 ± 2 kg/m3
same,mass density,"293.15 K, x2 = 0.3458",856.98 ± 2 kg/m3
same,mass density,"293.15 K, x2 = 0.4513",850.89 ± 2 kg/m3
same,mass density,"293.15 K, x2 = 0.5523",847.01 ± 2 kg/m3
same,mass density,"293.15 K, x2 = 0.6492",839.36 ± 2 kg/m3
same,mass density,"293.15 K, x2 = 0.7421",830.79 ± 2 kg/m3
same,mass density,"293.15 K, x2 = 0.8315",820.81 ± 2 kg/m3
same,mass density,"293.15 K, x2 = 0.9174",814.12 ± 2 kg/m3
same,viscosity,"298.15 K, x2 = 0",1.944 ± 0.062 mPa·s
same,viscosity,"298.15 K, x2 = 0.06096",2.146 ± 0.063 mPa·s
same,viscosity,"298.15 K, x2 = 0.1205",2.279 ± 0.063 mPa·s
same,viscosity,"298.15 K, x2 = 0.2357",2.474 ± 0.064 mPa·s
same,viscosity,"298.15 K, x2 = 0.3458",2.644 ± 0.064 mPa·s
same,viscosity,"298.15 K, x2 = 0.4513",2.805 ± 0.065 mPa·s
same,viscosity,"298.15 K, x2 = 0.5523",2.937 ± 0.065 mPa·s
same,viscosity,"298.15 K, x2 = 0.6492",3.037 ± 0.066 mPa·s
same,viscosity,"298.15 K, x2 = 0.7421",3.046 ± 0.066 mPa·s
same,viscosity,"298.15 K, x2 = 0.8315",3.088 ± 0.066 mPa·s
same,viscosity,"298.15 K, x2 = 0.9174",3.13 ± 0.066 mPa·s
same,mass density,"298.15 K, x2 = 0",862.31 ± 2 kg/m3
same,mass density,"298.15 K, x2 = 0.06096",861.18 ± 2 kg/m3
same,mass density,"298.15 K, x2 = 0.1205",860.59 ± 2 kg/m3
same,mass density,"298.15 K, x2 = 0.2357",857.37 ± 2 kg/m3
same,mass density,"298.15 K, x2 = 0.3458",852.62 ± 2 kg/m3
same,mass density,"298.15 K, x2 = 0.4513",846.55 ± 2 kg/m3
same,mass density,"298.15 K, x2 = 0.5523",842.76 ± 2 kg/m3
same,mass density,"298.15 K, x2 = 0.6492",835.13 ± 2 kg/m3
same,mass density,"298.15 K, x2 = 0.7421",826.7 ± 2 kg/m3
same,mass density,"298.15 K, x2 = 0.8315",816.78 ± 2 kg/m3
same,mass density,"298.15 K, x2 = 0.9174",810.19 ± 2 kg/m3
same,viscosity,"303.15 K, x2 = 0",1.786 ± 0.062 mPa·s
same,viscosity,"303.15 K, x2 = 0.06096",1.948 ± 0.062 mPa·s
same,viscosity,"303.15 K, x2 = 0.1205",2.055 ± 0.063 mPa·s
same,viscosity,"303.15 K, x2 = 0.2357",2.204 ± 0.063 mPa·s
same,viscosity,"303.15 K, x2 = 0.3458",2.334 ± 0.063 mPa·s
same,viscosity,"303.15 K, x2 = 0.4513",2.454 ± 0.064 mPa·s
same,viscosity,"303.15 K, x2 = 0.5523",2.558 ± 0.064 mPa·s
same,viscosity,"303.15 K, x2 = 0.6492",2.626 ± 0.064 mPa·s
same,viscosity,"303.15 K, x2 = 0.7421",2.629 ± 0.064 mPa·s
same,viscosity,"303.15 K, x2 = 0.8315",2.646 ± 0.064 mPa·s
same,viscosity,"303.15 K, x2 = 0.9174",2.676 ± 0.064 mPa·s
same,mass density,"303.15 K, x2 = 0",857.79 ± 2 kg/m3
same,mass density,"303.15 K, x2 = 0.06096",856.68 ± 2 kg/m3
same,mass density,"303.15 K, x2 = 0.1205",856.11 ± 2 kg/m3
same,mass density,"303.15 K, x2 = 0.2357",852.93 ± 2 kg/m3
same,mass density,"303.15 K, x2 = 0.3458",848.23 ± 2 kg/m3
same,mass density,"303.15 K, x2 = 0.4513",842.2 ± 2 kg/m3
same,mass density,"303.15 K, x2 = 0.5523",838.46 ± 2 kg/m3
same,mass density,"303.15 K, x2 = 0.6492",830.89 ± 2 kg/m3
same,mass density,"303.15 K, x2 = 0.7421",822.55 ± 2 kg/m3
same,mass density,"303.15 K, x2 = 0.8315",812.73 ± 2 kg/m3
same,mass density,"303.15 K, x2 = 0.9174",806.19 ± 2 kg/m3
same,viscosity,"308.15 K, x2 = 0",1.572 ± 0.062 mPa·s
same,viscosity,"308.15 K, x2 = 0.06096",1.697 ± 0.062 mPa·s
same,viscosity,"308.15 K, x2 = 0.1205",1.791 ± 0.062 mPa·s
same,viscosity,"308.15 K, x2 = 0.2357",1.917 ± 0.062 mPa·s
same,viscosity,"308.15 K, x2 = 0.3458",2.022 ± 0.062 mPa·s
same,viscosity,"308.15 K, x2 = 0.4513",2.123 ± 0.063 mPa·s
same,viscosity,"308.15 K, x2 = 0.5523",2.212 ± 0.063 mPa·s
same,viscosity,"308.15 K, x2 = 0.6492",2.275 ± 0.063 mPa·s
same,viscosity,"308.15 K, x2 = 0.7421",2.303 ± 0.063 mPa·s
same,viscosity,"308.15 K, x2 = 0.8315",2.309 ± 0.063 mPa·s
same,viscosity,"308.15 K, x2 = 0.9174",2.345 ± 0.063 mPa·s
same,mass density,"308.15 K, x2 = 0",853.24 ± 2 kg/m3
same,mass density,"308.15 K, x2 = 0.06096",852.18 ± 2 kg/m3
same,mass density,"308.15 K, x2 = 0.1205",851.64 ± 2 kg/m3
same,mass density,"308.15 K, x2 = 0.2357",848.49 ± 2 kg/m3
same,mass density,"308.15 K, x2 = 0.3458",843.79 ± 2 kg/m3
same,mass density,"308.15 K, x2 = 0.4513",837.83 ± 2 kg/m3
same,mass density,"308.15 K, x2 = 0.5523",834.13 ± 2 kg/m3
same,mass density,"308.15 K, x2 = 0.6492",826.62 ± 2 kg/m3
same,mass density,"308.15 K, x2 = 0.7421",818.36 ± 2 kg/m3
same,mass density,"308.15 K, x2 = 0.8315",808.63 ± 2 kg/m3
same,mass density,"308.15 K, x2 = 0.9174",802.09 ± 2 kg/m3
same,viscosity,"313.15 K, x2 = 0",1.417 ± 0.061 mPa·s
same,viscosity,"313.15 K, x2 = 0.06096",1.515 ± 0.061 mPa·s
same,viscosity,"313.15 K, x2 = 0.1205",1.578 ± 0.062 mPa·s
same,viscosity,"313.15 K, x2 = 0.2357",1.678 ± 0.062 mPa·s
same,viscosity,"313.15 K, x2 = 0.3458",1.761 ± 0.062 mPa·s
same,viscosity,"313.15 K, x2 = 0.4513",1.839 ± 0.062 mPa·s
same,viscosity,"313.15 K, x2 = 0.5523",1.902 ± 0.062 mPa·s
same,viscosity,"313.15 K, x2 = 0.6492",1.96 ± 0.062 mPa·s
same,viscosity,"313.15 K, x2 = 0.7421",1.998 ± 0.062 mPa·s
same,viscosity,"313.15 K, x2 = 0.8315",1.998 ± 0.062 mPa·s
same,viscosity,"313.15 K, x2 = 0.9174",2.015 ± 0.062 mPa·s
same,mass density,"313.15 K, x2 = 0",848.71 ± 2 kg/m3
same,mass density,"313.15 K, x2 = 0.06096",847.71 ± 2 kg/m3
same,mass density,"313.15 K, x2 = 0.1205",847.15 ± 2 kg/m3
same,mass density,"313.15 K, x2 = 0.2357",844.09 ± 2 kg/m3
same,mass density,"313.15 K, x2 = 0.3458",839.39 ± 2 kg/m3
same,mass density,"313.15 K, x2 = 0.4513",833.46 ± 2 kg/m3
same,mass density,"313.15 K, x2 = 0.5523",829.78 ± 2 kg/m3
same,mass density,"313.15 K, x2 = 0.6492",822.37 ± 2 kg/m3
same,mass density,"313.15 K, x2 = 0.7421",814.15 ± 2 kg/m3
same,mass density,"313.15 K, x2 = 0.8315",804.54 ± 2 kg/m3
same,mass density,"313.15 K, x2 = 0.9174",798 ± 2 kg/m3
